# Legend:
# 3′L-iav-RNA = type: binding, influenza A virus
# 5′L-iav-RNA = type: binding, influenza A virus
# [1] = test system: PreQ1-sensing riboswitch (PreQ1 rs); assay: α-hemolysin nanopore measurement of PreQ1 rs with PreQ1; type: binding
# Procedure: The PreQ1 rs is synthesized by Integrated DNA Technologies (Coralville, IA, USA). The PreQ1 rs used in the test was designed by adding GG sequences to the 5′ end of the 34nt basic aptamer sequences for the ease of secondary verification (NMR analysis, etc.) of the riboswitch structural change by binding of the PreQ1 ligand. The PreQ1 rs RNAs were dialyzed against 10 mM potassium phosphate (pH 6.2) buffer for at least 12 hours. After heating RNAs at 95° C. for 5 minutes, it was cooled quickly in the ice and annealed. All nanopore tests were performed at 500 nM concentration.
# Specifically, in the buffer containing 10 mM potassium phosphate (pH 6.2) and 1M KCl, 500 nM of free PreQ1 rs was added to the cis face of a lipid bilayer with the α-HL nanopore. It was observed that the PreQ1 rs was driven by electrophoresis to block the ion current if the (+) voltage was applied on the nanopore.
# Since then, to confirm whether the interaction of ligands can be detected at a single molecule level, the PreQ1 rs-PreQ1 complex was added to the cis face of the lipid bilayer with the nanopore in the buffer containing 10 mm phosphate (pH 6.2) and 1M KCl. When the (+) voltage is applied to the nanopore, the ion current is blocked as the PreQ1 rs-PreQ1 complex enters the nanopore by electrophoresis. In the current blockade event of the PreQ1 rs-PreQ1 complex, both type A and type B events were observed, and active nanopore current traces were confirmed (FIG. 17, bottom panel).
# TPP riboswitch (TRS) = type: binding
# ARS = assay: 1D CPMG ligand-observed NMR; conditions: absence vs presence of ARS
# [2] = test system: adenine-sensing riboswitch (ARS); assay: 1D 1H NMR of ARS with adenine; conditions: high salt concentration (1M KCl)
# [3] = test system: adenine-sensing riboswitch (ARS); assay: α-hemolysin nanopore measurement of ARS with ligand; type: binding, Vibrio vulnificus; conditions: for dwell time relative to free ARS: type-II translocation event, individual compounds
# Procedure: RNAs were synthesized by Integrated DNA Technologies (Coralville, IA, USA). All RNAs were dialyzed against 10 mM potassium phosphate (pH 6.2) buffer for at least 12 hours. After heating RNAs at 95° C. for 5 minutes, it was cooled quickly in the ice and annealed. The nanopore experiment was performed at RNA concentration of 10 to 500 nm. α-hemolysin (α-HL) protein was purchased from List Biological Laboratories Inc. (CAMPBELL, CA, USA). 1,2-diphytanoylsn-glycero-3-phosphocholine(DPhPC) was purchased from Avanti Polar Lipids (Alabaster, Al, USA).
# Specifically, in the buffer containing 10 mM potassium phosphate (pH 6.2), 2 mM MgCl2 and 1M KCl, free ARS or ARS-adenine complex was added to the cis face of a lipid bilayer with a single α-HL nanopore. If the voltage of (+) 100 mV is applied on the nanopore, the free ARS or the ARS-adenine complex is driven by electrophoresis to block the ion current. The nanopore events of the free ARS and ARS-adenine complex were statistically analyzed (a to c in FIG. 2).
# The average I/I0 value of level 1 (III1) of the type-II event is 0.45, which corresponds to about 50% of level 2 (III2). After separating the types I and II nanopore events of the complex, each type of event was statistically analyzed. The type I and II events of the ARS-adenine complex is different in the average value and dwell time of I/I0 ((b) to (c) in FIG. 3).
compound,measurement,setting,value
"COc1cc2nc(N3CCNCC3)nc(N)c2cc1OC [DPQ, 6,7-dimethoxy-2-(1-piperazinyl)-4-quinazolinamine]",nanopore average dwell time,3′L-iav-RNA,9.52 ms
same,average nanopore dwell time,5′L-iav-RNA,1.14 ms
same,dwell time,5′L-iav-RNA,1.47 ms
"NCC1C=Nc2nc(N)[nH]c(=O)c21 (stereo not shown) [PreQ1, 7-aminomethyl-7-deazaguanine]",type A event rate,[1]; PreQ1 rs-PreQ1 complex,26.5%
same,type B event rate,[1]; PreQ1 rs-PreQ1 complex,73.5%
same,type B event rate increase versus free PreQ1 rs,[1]; ligand-bound state,about 1.5 times
"Cc1ncc(C[n+]2csc(CCO[P@](=O)(O)OP(=O)(O)O)c2C)c(N)n1 [TPP, thiamine pyrophosphate]",average dwell time,TPP riboswitch (TRS),0.22 ms
same,dwell time of type-I event,TPP riboswitch (TRS),0.21 ms
same,dwell time of type-II event,TPP riboswitch (TRS),4.37 ms
same,type-II dwell time increase versus free TRS,TPP riboswitch (TRS),1.3 times
same,type-II event rate,TPP riboswitch (TRS),14.3%
same,type-II event rate increase versus free TRS,TPP riboswitch (TRS),1.6 times
Neomycin,average nanopore dwell time,5′L-iav-RNA,3.48 ms
same,dwell time increase versus free viral RNA,5′L-iav-RNA,about 8.1 times
NCCCS(=O)(=O)O [tramiprosate],binding to ARS by 1D CPMG,ARS,non-binding
Nc1ncnc2nc[nH]c12 [adenine],binding to ARS by imino proton peaks,[2],bound
same,nanopore event type observed,[3]; ARS with ligand,mixture of the type I and type-II events
same,average dwell time (td),"[3]; ARS with ligand, all events, +100 mV, 1M KCl",0.63 ms
same,dwell time of the type-I event (tI),[3]; ARS-adenine complex,0.28 ms
same,dwell time of the type-II event (tII),[3]; ARS-adenine complex,2.14 ms
same,nanopore dwell time of the type-II event (tII),[3]; adenine added to MIX-3,2.52 ms
same,type-II dwell time relative to free ARS,[3]; adenine added to MIX-3,up to 6.6 times
same,type-II dwell time relative to the type-I event,[3]; adenine-bound ARS,7.64 times
Nc1ncnc2c1ncn2[C@@H]1O[C@H](COP(=O)(O)OP(=O)(O)OP(=O)(O)O)[C@@H](O)[C@H]1O [ATP],binding to ARS by 1D CPMG,ARS,non-binding
"O=C(/C=C/c1ccc(O)c(O)c1)O[C@@H]1[C@H](O)C[C@@](O)(C(=O)O)C[C@H]1OC(=O)/C=C/c1ccc(O)c(O)c1 [NC1, 3,4-dicaffeoylquinic acid]",nanopore event type observed,[3]; ARS with ligand,types II translocation event
same,dwell time relative to free ARS,[3],more than twice
same,binding to ARS by 1D CPMG,ARS,definite binding
Oc1cc(O)c2c(c1)O[C@H](c1ccc(O)c(O)c1)[C@H](O)C2 [(−)-epicatechin],binding to ARS by 1D CPMG,ARS,non-binding
"O=C(O)[C@H]1O[C@@H](Oc2cc(O)c3c(=O)cc(-c4ccc(O)c(O)c4)oc3c2)[C@H](O)[C@@H](O)[C@@H]1O [NC4, luteolin-7-glucuronide]",nanopore event type observed,[3]; ARS with ligand,types II translocation event
same,dwell time relative to free ARS,[3],more than twice
same,binding to ARS by 1D CPMG,ARS,definite binding
"O=C(/C=C/c1ccc(O)c(O)c1)O[C@H]1[C@H](O)C[C@](O)(C(=O)O)C[C@H]1OC(=O)/C=C/c1ccc(O)c(O)c1 [NC2, 4,5-dicaffeoylquinic acid]",nanopore event type observed,[3]; ARS with ligand,types II translocation event
same,dwell time relative to free ARS,[3],more than twice
same,binding to ARS by 1D CPMG,ARS,definite binding

# Reference: patent US12560588B2, “High-efficiency screening method for RNA-targeting drugs using nanopores” (KOREA RESEARCH INSTITUTE OF BIOSCIENCE AND BIOTECHNOLOGY, priority 2020, dated 2026)
